# Test results reported in a melting point compilation (Tetko et al.; mined from patent text by program, amines drawn as free bases though some values may be those of a salt).
row,Structure (SMILES),melting point [°C]
1,COc1cc2c(cc1OC)CN(CCCSc1ccc(NC(=O)c3cccc4c(=O)c5ccccc5[nH]c34)cc1)CC2,182
2,COc1ccc(N2CCN(CC(O)COc3cccc4cc(C(C)=O)oc34)CC2)cc1 (stereo not given),173 to 175
3,CC(=O)OC1CSC(Oc2ccc(C)nc2-c2ccncc2)C(OC(C)=O)C1OC(C)=O (stereo not given),140 to 144
4,CCN(CC)CCOc1ccc(Nc2ncc3c(n2)N(C)C(=O)N(C(C)C)C3)cc1,154
5,Cc1nn(C)c2c(-c3ccc(OC(F)(F)F)cc3)nc(-c3ccc(F)cc3)nc12,170 to 172
6,COc1ccc(C(=C/C=C/C(=O)NCCCCc2cccnc2)c2ccc(OC)c(OC)c2)cc1OC,145 to 146
7,CC(C)CCCC(C)C1CC=C2C3=C(CCC21C)C1(C)CCC(O)CC1CC3 (stereo not given),113 to 114
8,CC1(C)CCc2c(N3CCOCC3)nc3sc4c(NCc5ccncc5)ncnc4c3c2C1,240 to 241
9,COc1cc(Nc2c(C#N)cnc3cc(-c4ccc(C=O)o4)ccc23)c(Cl)cc1Cl,> 250
10,O=C(Nc1ccc2c(c1)nc1n2CCC1)c1cc2nc(C(F)(F)F)ccc2n1Cc1ccncc1,130 to 131
11,CC(Oc1cc(Oc2ccc(C(F)(F)F)cc2Cl)ccc1[N+](=O)[O-])C(=O)NCc1ccco1 (stereo not given),128 to 130
12,Clc1cc2nc(NCCCN3CCOCC3)c(-c3ccccn3)nc2cc1Cl,119 to 121
13,CCNc1nc(OC)c(C(=O)NCC2CCCN2C2CCCCC2)nc1Cl (stereo not given),164 to 165
14,COc1ccc(N2CCN(c3c(C)c(C)c4c(c3C)C(Cc3ccccc3)C(C)(C)O4)CC2)cc1 (stereo not given),146 to 148
15,CCC(CC)CCc1nn(C)c2cc(C(=O)OC)ccc12,91 to 93
16,COc1cc(C=O)cc2c(C)c(C)oc12,80 to 81
17,COc1ccc(NC(N)=O)c(C#N)c1OC,198 to 200
18,COc1cccc2c1nc(C(F)F)n2-c1nc(Nc2cccnn2)nc(N2CCOCC2)n1,261 to 263
19,COc1cccc(C2=C(C#N)C(c3cccc4nsnc34)c3c[nH]nc3N2)c1 (stereo not given),220
20,CC(C)NCC(O)COc1ccc2c(c1)C(=O)OC2 (stereo not given),95 to 97
21,CCn1cc(C(=O)O)c(=O)c2cc(C=NO)sc21,315 to 317

row,Structure (SMILES),melting point [°C]
1,Oc1cc(Br)nnc1-c1ccc(Cl)cc1,262 to 264
2,N#CC12CCCC(C1)C1CCC2C1 (stereo not given),109 to 110
3,CS(=O)(=O)c1ccc(-c2cc(C(=O)c3cc(-c4ccc(S(C)(=O)=O)cc4)c(N4CCOCC4)s3)sc2N2CCOCC2)cc1,235 to 236
4,CC(C)OCc1c(S(C)(=O)=O)ccc(Br)c1Cl,87 to 91
5,CCOC(=O)c1[nH]c2c(C)ccc(C)c2c1C(=O)OC,128 to 129
6,Cc1nc2c(N)nc3c(c2n1CCCCS(=O)(=O)C(C)C)CCCC3,177 to 178
7,CCOCc1nc2c(N)nc3cc(-c4cccnc4)ccc3c2n1CCCCNC(=O)c1ccc(C(OCCN(C)C)c2ccccc2)cc1 (stereo not given),157 to 161
8,Cc1ccc2c(Cl)ccnc2c1[N+](=O)[O-],140 to 147
9,CCCCCCCCCCCCCCSc1ccc(C(=O)O)o1,84 to 86
10,CS(=O)(=O)c1ccc(-c2cnn(-c3ccc(Cl)s3)c(=O)c2-c2ccc(F)cc2)cc1,190 to 192
11,Cc1cc(C)n(-c2cnc(CN)c(Nc3ccc(Cl)cc3)n2)n1,156 to 160
12,COc1ccc(-c2cc3cc(F)c(F)cc3[nH]2)cc1NS(=O)(=O)c1cccc([N+](=O)[O-])c1,228 to 230
13,Cc1ccc(C(=O)N[C@H]2CC[C@H](CCN3CCN(c4nccc5c4OCC5)CC3)CC2)cn1,204
14,CCOC(=O)c1cc(-c2ccc(OC)cc2)nn(CC=Cc2ccc(Cl)cc2)c1=O,127 to 128
15,Cc1ccc(NC(=O)c2ccc(C#N)cc2)cc1NC(=O)c1ccc(O)cc1,297 to 299
16,CC(C)(C)OC(=O)C(F)=CC1C(C(=O)OC(C#N)c2cccc(Oc3ccccc3)c2)C1(C)C (stereo not given),103
17,NC(=O)[C@@H]1[C@H](Nc2c(Br)cnc3[nH]c(-c4cccnc4N4CCCC4)nc23)[C@H]2C=C[C@@H]1C2,190
18,Cc1nc2cnc3ccccc3c2n1Cc1ccc(Cl)cc1,183 to 185
19,COc1cc(OC)c(-c2cccs2)cc1/C=C/C(=O)c1ccc(S(=O)(=O)Nc2ccc(F)cn2)cc1,194 to 195
20,O=C(N[C@H](Cc1cccc(Oc2ccccc2)c1)[C@@H](O)c1ccc(F)cc1)c1ccc(F)c2ccccc12 (racemic),120 to 121
21,O=c1[nH]c2cc(Cl)ccc2n1C1CCN(Cc2cccc(-c3ccc(Cl)cc3)n2)CC1,203 to 205

row,Structure (SMILES),melting point [°C]
1,CC1CCC(Oc2ccc(CC(=O)c3ccc4c(c3)CCC4)cc2)(C(=O)O)C1 (stereo not given),148 to 151
2,COc1cc(C(C)=O)ccc1OCCCCN1CCC(c2n[nH]c3cc(F)ccc23)CC1,158 to 160
3,CC1=CC(=O)C=CC1(C)C(Cl)(Cl)Cl (stereo not given),57
4,CC1(C)COc2cc(Cl)c(Cl)cc2C(O)(c2ccccn2)C1 (stereo not given),128
5,Cc1cc2ccc(Cl)c(C(=O)O)c2nc1C(F)(F)F,186 to 188
6,Cc1cc(-c2ccc(C(F)(F)F)cc2)nc(Oc2cccc(C(F)(F)F)c2)n1,124 to 127
7,COc1ccc(C(=O)NC(=O)Nc2ccc3c(c2)NC(=O)/C3=C\c2ccncc2)cc1,270 to 275
8,CC(C)(C)OC(=O)N(Cc1ccc(C(=O)O)cc1)c1ccc(C2CCCCC2)cc1,192 to 194
9,Cc1cc(C(=O)O)ncc1C(c1c(F)ccc(F)c1F)S(=O)(=O)CCC(F)(F)F (stereo not given),85 to 87
10,NC1=NCc2c[nH]c3cccc1c23,233 to 235
11,COC(=O)CCCCc1ccc(CN2CCN(c3ccncc3)CC2)cc1,53 to 54
12,CC(=O)NC1(c2ccc(C(C)N3CCN(c4ccc(F)cc4)CC3)cc2)CC1 (stereo not given),149 to 150
13,O=C(Nc1ccccc1)Nc1cc(Cl)nc(Cl)c1,219 to 222
14,Cc1ccc(C(N)(c2ccc3c(c2)c(-c2cccc(Cl)c2)nc2nnnn23)c2cncn2C)cc1 (stereo not given),150
15,CS/C=C(/C)n1c(=O)n(C)c2cc(F)ccc21,110
16,OC1CSC(Sc2cc(C(F)(F)F)cc(C(F)(F)F)c2)C(O)C1O (stereo not given),157 to 158
17,CCON1CC1C(N)=O (stereo not given),50 to 54
18,COc1cc2c(=O)c(C(N)=O)c[nH]c2cc1F,> 300
19,CCCCN1C(=O)NC(CO)C1=O (stereo not given),93

# Other lines, results leading:
row,melting point [°C],Structure (SMILES)
1,177 to 178,CC(C)(C)OC(=O)Nc1ccc(C#Cc2ccccc2)cc1N
2,143 to 146,CNc1cccc2c(=O)c(C)c(-c3ccccc3)oc12
3,126 to 128,CCCCc1nc2ccccn2c(=O)c1-c1ccc(N2CCN(C(=O)OC(C)(C)C)CC2)nc1
4,> 290,CCCn1c(=O)[nH]c(=S)c2[nH]c(C=Cc3ccccc3)nc21
5,184 to 185,COc1ccc(C(=O)CCC(=O)O)cc1NC(C)=O
6,260 to 262,CS(=O)(=O)c1ccc(CC(=O)c2c(O)c3cccnc3n(-c3ccccc3)c2=O)cc1
7,183 to 184,C(=C(\C(=C\c1ccccc1)c1ccccc1)c1ccccc1)/c1ccccc1
8,101,Cc1cccc2nnc(-c3ccccc3)cc12
9,149 to 150,CSC1C(=O)Nc2c(Oc3ccccc3)cccc21 (stereo not given)
10,192 to 194,O=CC(CC(=O)c1ccc(F)cc1)c1ccccc1 (stereo not given)
11,174 to 175,CCCn1c(=O)c(-c2ccccc2)c2n(c1=O)C=CCS2=O (stereo not given)
12,303 to 305,O=[N+]([O-])c1cc(-c2cn3c(n2)sc2ccccc23)cc(O)c1O
13,112 to 115,Cc1noc(NS(=O)(=O)c2ccccc2-c2cccs2)c1C
14,241 to 243,CC(=O)N1CCC(F)(Cc2c3c(nn2C)c(N)nc2ccccc23)CC1
15,130 to 131,CSc1ccc(C2OC(=O)NC2CO)cc1 (stereo not given)
16,155 to 156,Cn1cc2c([C@H]3C[C@H]3CN)cccc2n1 (relative stereo)
17,62 to 65,Clc1ccc(N=Cc2ccccc2)cc1Cl
18,134 to 135,O=C(OCC(=O)c1ccc(C(F)(F)F)cc1)Oc1ccccc1
19,52 to 53,O=C(OCOCOC(=O)c1c(F)cccc1F)c1c(F)cccc1F
20,300 to 302,CS(=O)(=O)c1ccc(-c2[nH]c3ccc(Cl)cc3c2-c2ccccc2Cl)cc1

row,melting point [°C],Structure (SMILES)
1,99 to 101,O=C(Nc1ccc(C2CCC(O)C2)cc1)OCc1ccccc1 (stereo not given)
2,139 to 140,CC1Cc2ccc(Cl)cc2CN(CCO)C1=O (stereo not given)
3,182 to 184,Cc1ccc(C)n1N1C(=O)c2ccccc2C1=O
4,90.5 to 91.5,COc1ccc2c(CCC3CCN(Cc4ccccc4)CC3)noc2c1
5,95 to 97,CCOC(=O)C(=O)c1ccc(OCCCn2c(=O)c3ccccc3c3ccccc32)cc1
6,158 to 160,O=CNC1=NN(c2ccc(F)cc2)C(c2ccccc2)C1 (stereo not given)
7,108,Cc1ccc(S(=O)(=O)N2CCCC2c2cccs2)cc1 (racemic)
8,152 to 156,CCOc1ccc(-c2nc(=O)c3ccccc3s2)cn1
9,122 to 125,O=C(c1cc(F)ccc1C(F)(F)F)N1CCN(c2ccc(-c3ncc(-c4ccccc4)o3)nn2)CC1
10,197 to 199,O=C(O)C1CC(=O)N(c2ccccc2)N1 (stereo not given)
11,162 to 163,CCCC12C=CC=C(N3CCC(c4noc5cc(F)ccc45)CC3)C1(O)C(=O)NC2=O (stereo not given)
12,191 to 193,O=C1COc2cc(CN3CCN(c4ccccc4)CC3)ccc2N1
13,104 to 106,CC(=O)c1ccc(S(=O)(=O)N2CCCC(CO)C2)cc1 (stereo not given)
14,178 to 180,N#CN1CCN(c2nn(S(=O)(=O)c3ccccc3)c3ccccc23)CC1
15,137 to 139,Cc1cc2c(s1)C(C(=O)O)CC2=O (stereo not given)
16,286 to 290,Cn1cc2c(O)c(C(=O)c3ccccc3)cnc2n1
17,204,CC(C)c1nc2c(C(F)(F)F)cccc2c(O)c1C(=O)O
18,36.3,CCOC(=O)C=Cc1cccc(I)c1
19,99 to 100,CCC(CC)C(c1ccnn1-c1ccccc1)N(C)S(=O)(=O)c1cc(Cl)c(Cl)s1 (stereo not given)
